Patent US20220133618A1, “Low Surfactant Personal Care Compositions” (The Procter & Gamble Company, priority 2020, published 2022)

Columns and labels:
[1] = test system: keratinocytes on de-epidermized dermis (DED); test: TEWL (transepidermal water loss) on organotypic epidermis cultures; type: cell-based, human; conditions: topical treatment 20 minutes, washed, reading after 24 hours; higher value = worse
Source text: TEWL (transepidermal water loss) is a common clinical measure used to compare the mildness of surfactant-based formulations for skin (Rogiers 2001; Berardesca and Maibach 1990; Brink et al. 2019; O'Connor, Ogle, and Odio 2016; Thune et al. 1988). TEWL is considered to provide a relative understanding of individual skin barrier quality in relation to onset of disease, environmental impacts and exposure to topical formulations, such as consumer products (Alexander et al. 2018). […]
De-epithelialized dermis (DED) was prepared by removing fat from the skin sample with a scalpel, cutting the skin into squares measuring 1.25 cm^2, and placing the samples in 1M NaCl plus 10× penicillin/streptomycin. […] The following day, the epidermis was carefully peeled off with forceps and dermal tissue was stored in phosphate-buffered saline (PBS) plus 2× penicillin/streptomycin at 4° C. until ready for use. […]
At day 7 at the air-liquid interface, the cultures were treated topically with full or diluted formulas by cotton swab or by pipetting 6-50 ul, depending on product viscosity. […] Once equilibrated the cultures were placed on the lid of a sterile 150 mm petri dish and TEWL readings were taken using a Delfin Vapometer containing a silicone O-ring adaptor provided by the manufacturer. […]

[2] = Syringe filter polymer cleaning procedure (syringe method); conditions: Table 4; controls; Decyl Glucoside 2% starting active before dilution
Protocol: Procedure for Syringe Filter Polymer Cleaning
1) materials used in syringe cleaning procedure: • A. 0.15% Oil Red 0 dyed >95% pure Glyceryl Trioleate oil (See below—Procedure for preparing 0.15% Oil Red 0 dyed Triolein oil (Glyceryl trioleate)) • B. Syringe Filters: 30 mm, 5 um Nylon syringe filters; (Thermo Fischer Scientific Co, Waltham, Mass.: Part #F2500-50) • C. 24 ml Norm-ject luer (slip tip) syringes Ref #4200-00V0 (These are silicone free syringes) • D. Isopropanol (IPA) • E. Polymer Solutions/mixtures—diluted with distilled water to the desired percentage (typically 0.5% for a polymer only solution and 10% for a full formulation unless otherwise noted in the examples). • F. Plastic drain tubing having a diameter to fit over the slip tip of the syringe filter tightly
Syringe Pump Settings • Syringe Diameter: 20 mm (Note: The volume of liquid dispensed by the syringe is based on the diameter of the syringe and diameter setting must be changed if using different sizes of syringes). • Dispensing Volume set point: 5 mls • Cleaning Dispensing Rate: 5 mls/min • IPA Extraction Rate: 2.5 ml/min
• 1. Coat the slip tip side of the syringe filter (see FIG. 5) using a micro pipettor with 48-50 mg of Oil 0 Red dyed Triolein oil by setting the micro-pipettor to a volume of ˜58 ul to compensate for the lower density of the dyed oil. • 2. Slowly fill the pipette tip with oil. […]

Row | SMILES | TEWL Mean [1] | % Sebum Removed with Syringe Method [2]
1 | CCCCCCCCCCCCOS(=O)(=O)[O-].[Na+] [SLS (10%)] | 26.03 | –
2 | CCCCCCCCCCO[C@@H]1O[C@H](CO)[C@@H](O)[C@H](O)[C@H]1O [Sample C3, Decyl Glucoside] | – | 51%
